Test results from patent publication US11932606B2, “Anti-cancer/anti-fibrosis compounds” (THE REGENTS OF THE UNIVERSITY OF CALIFORNIA, priority 2017, dated 2024).

Key:
CSNK2A1 (CK2 alpha 1) = CSNK2A1 (CK2 alpha 1) (Homo sapiens (Human), UniProt P68400); assay: CK2 alpha 1 enzymatic activity inhibition (Z'-LYTE); type: biochemical; conditions: read-out: CK2a IC50
Method: CK2 Alpha 1 Enzymatic Activity Inhibition: Determination of IC50 Values for Selected Compounds
The half maximal inhibitory concentration (IC50) with respect to CK2 alpha 1 inhibition was determined for the compounds of the invention by using Z′-LYTE™ from ThermoFisher Scientific's SelectScreen™ Biochemical Kinase Profiling Service (Waltham, MA). Compounds were screened in 1% DMSO (final) in the well. For 10 point titrations, 3-fold serial dilutions were conducted from the starting concentration. The 2×CSNK2A1 (CK2 alpha 1)/Ser/Thr 11 mixture is prepared in 50 mM HEPES pH 7.5, 0.01% BRIJ-35, 10 mM MgCl2, 1 mM EGTA. The black 384-well plate (Corning Cat. #4514) were used for the assay. 100 nL of 100× test compound in 100% DMSO, 2.4 uL of kinase buffer (50 mM HEPES pH 7.5, 0.01% BRIJ-35, 10 mM MgCl2, 1 mM EGTA), 5 uL of 2×CSNK2A1 (CK2 alpha 1)/Ser/Thr 11 mixture, and 2.5 uL of 4×ATP solution were mixed and agitated for 30 seconds. Then the Kinase Reaction was incubated at room temperature for 60 minutes. The final 10 uL Kinase Reaction consisted of 0.68-25.7 ng CSNK2A1 (CK2 alpha 1) and 2 μM Ser/Thr 11 in 50 mM HEPES pH 7.5, 0.01% BRIJ-35, 10 mM MgCl2, 1 mM EGTA. After the 1 hour Kinase Reaction incubation, 5 uL of a 1:16 dilution of Development Reagent B is added. After 30 second of plate shake, the reaction plate was incubated for another 60 min at room temperature. Then the plate was read on a fluorescence plate reader (CLARIOstar, BMG Labtech, Germany) and data was analyzed using XLfit from IDBS. The dose response curve was curve fit to model number 205 (sigmoidal dose-response model).

A549-BRM3 = assay: Cell viability assay (CellTiter-Glo, day 7); type: cell-based; conditions: 168 h; A549-BRM3, day 7
Method: (§1) CLL-119, Hela, HCT116, MCF7, Colo205, SW620, H2052, MSTO-211H, U-251, Colo 357, OE33, Huh-7, A549, BT474, A204 and H290 cells were acquired from UCSF Cell and Genome Engineering Core. A549-Brm3 and H2030-Brm3 were from UCSF thoracic oncology lab. All cells were plated (96-well) in triplicate at 500 cells per well for testing (n=3) with compound. Medium was changed once on day 3. On day 7, the CellTiter-Glo Luminescent Cell Viability Assay (Promega) was performed to measure the response. For cell viability assay, two independent experiments have been done.

BT474 = assay: Cell viability assay (CellTiter-Glo, day 7); type: cell-based; conditions: Homo sapiens, BT-474, 168 h; BT474, day 7
Method: as §1

CLL-119 = assay: Cell viability assay (CellTiter-Glo, day 7); type: cell-based; conditions: 168 h; CLL-119, day 7
Method: as §1

H2052 = assay: Cell viability assay (CellTiter-Glo, day 7); type: cell-based; conditions: Homo sapiens, NCI-H2052, 168 h; H2052, day 7
Method: as §1

Hela = assay: Cell viability assay (CellTiter-Glo, day 7); type: cell-based; conditions: Homo sapiens, 168 h
Method: as §1

OE33 = assay: Cell viability assay (CellTiter-Glo, day 7); type: cell-based; conditions: Homo sapiens, 168 h; OE33, day 7
Method: as §1

SW620 = assay: Cell viability assay (CellTiter-Glo, day 7); type: cell-based; conditions: Homo sapiens, SW-620, 168 h; SW620, day 7
Method: as §1

MV-4-11 cancer cell line = assay: Western blot of treated cells; type: cell-based
Method: For cell lines: All cells were plated (6-well) at 5×10^5 cells per well with medium containing 1% FBS overnight. And then Compound 29 was added in different concentrations with medium containing 1% FBS. After 16 hours, cells were lysed in M-per Mammalian Protein Extraction Reagent (78501, Thermo Fisher Scientific) containing protease and phosphatase inhibitors (88669, Thermo Fisher Pierce). Total protein concentration was measured using the Pierce BCA protein Assay Kit (#23227).
Proteins were separated on SDS-PAGE and transferred to nitrocellulose membrane. Immunoblotting were performed using specific antibodies: phosphor-Stat1-pS727 (8826, Cell signaling), total-Stat1 (14994, Cell signaling), Phospho-Stat3 (Tyr705) (9131, Cell signaling), Stat3 (9139, Cell signaling), pSTAT5-pS726 (ab128896, abcam), stat5 (94205, cell signaling), YAP (14074, Cell signaling), CYR61(14479, Cell signaling), CTGF (ab6992, Abcam), c-Myc (13987, Cell signaling), Mcl-1 (94296, Cell signaling) and GAPDH (AM4300, Invitrogen). (FIG. 1A, FIG. 1B, FIG. 1C). MV-4-11 cancer cell line was treated with compound 29 at various concentrations (30 nM up to 10 μM) for 24 hours and 48 hours, respectively.

MOLM-14 xenograft = assay: MOLM-14 mouse xenograft model; type: in vivo; conditions: 50 mg/kg orally b.i.d.
Method: 40 athymic nude mice (Taconic Biosciences) were injected with 5×10^6 MOLM-14 cells in 50% matrigel s.c. in flank. Cell Injection Volume is 0.2 ml/mouse for MOLM-14. Age of mice at start date is 12-14 weeks. Perform a pair match when tumors grows after two weeks and begin treatment. Compound 29 was dissolved in saline and was given orally twice a day on a schedule of five days on/two days off for three weeks. Body weight and tumor size were measured every other day when mice being treated. After the last administration, mice were euthanized for tumor collection. […] In the MOLM-14 xenograft model, mice were treated with compound 29 at 50 mg/kg for 21 days (orally, b.i.d). The tumor volume from control and vehicle group was measured. […] Body weights of mice in both groups were measured and plotted.

Chain of CSNK2A1 (CK2 alpha 1) (P68400 whole entry): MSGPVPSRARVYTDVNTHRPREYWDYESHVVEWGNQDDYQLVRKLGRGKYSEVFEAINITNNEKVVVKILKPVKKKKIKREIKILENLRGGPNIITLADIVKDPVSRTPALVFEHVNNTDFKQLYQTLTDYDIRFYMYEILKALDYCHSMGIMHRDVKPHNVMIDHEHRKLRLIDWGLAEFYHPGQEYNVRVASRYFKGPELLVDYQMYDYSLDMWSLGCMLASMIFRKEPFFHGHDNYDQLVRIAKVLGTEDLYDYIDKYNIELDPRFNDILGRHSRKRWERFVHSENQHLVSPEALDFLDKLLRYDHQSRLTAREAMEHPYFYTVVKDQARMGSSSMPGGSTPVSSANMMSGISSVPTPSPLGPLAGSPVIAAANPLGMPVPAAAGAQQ

`Nc1nccc2c(Br)cc3cc(C(=O)[O-])ccc3c12.[Na+]` [Compound 29, Sodium 1-amino-5-bromobenzo[h]isoquinoline-8-carboxylate] was tested, and the IC50 (CSNK2A1 (CK2 alpha 1)) was < 300 nM, the IC50 (A549-BRM3) was 1 to 10 µM and the IC50 (BT474) was 1 to 10 µM. For the same molecule, the IC50 (CLL-119) was < 1000 nM, the IC50 (H2052) was 1 to 10 µM and the IC50 (Hela) was 1 to 10 µM. The IC50 (OE33) was < 1000 nM, the IC50 (SW620) was 1 to 10 µM and the “level of p-STAT1(Ser727), p-STAT3(Tyr705), p-STAT5(Ser726)” value (MV-4-11 cancer cell line; MV-4-11, 30 nM up to 10 μM, 24 hours and 48 hours) was “dose-response down regulation”. The “level of YAP, CYR61, CTGF, C-MYC, and MCL-1” value (MV-4-11 cancer cell line; MV-4-11, 48 hours) was “down regulate”, the “Growth of tumors (tumor volume)” value (MOLM-14 xenograft; 21 days) was “greatly inhibited” and the weight loss (MOLM-14 xenograft; during treatment) was < 5%.
